Key:
[1] = system: HT-1080-FAP tumor xenografts; assay: Organ distribution ex vivo in HT-1080-FAP tumor bearing nude mice; design: species or system mouse
Description: For in vivo experiments, 8 week old BALB/c nu/nu mice (Charles River) were subcutaneously inoculated into the right trunk with 5×10^6 with HT-1080-FAP, Capan-2 or SK-LMS-1 cells, respectively. When the size of the tumor reached approximately 1 cm^3, the radiolabeled compound was injected via the tail vein (˜10 MBq for small-animal PET imaging; ˜1 MBq for organ distribution). PET imaging was performed up to 140 min after intravenous injection of 1 MBq of Ga-68 labeled compound per mouse using the Inveon PET small-animal PET scanner (Siemens). Images were reconstructed iteratively using the 3D-OSEM+MAP method and were converted to standardized uptake value (SUV) images. Quantification was done using a ROI technique and expressed as SUV mean. For organ distribution of Lu-177 labeled compound (approx. […] per mouse), the animals (n=3 for each time point) were sacrificed after indicated time points (from 30 min to 24 h). The distributed radioactivity was measured in all dissected organs and in blood using a γ-counter (Cobra Autogamma, Packard). The values are expressed as percentage of injected dose per gram of tissue (% ID/g).

[2] = system: HT-1080-FAP cells; assay: Efflux experiments in HT-1080-FAP cells; type: cell-based, human; settings: after 24 h in compound-free medium
Description: Radioligand binding studies were performed using HT-1080-FAP cells. The radiolabeled compound was added to the cell culture and incubated for different time intervals ranging from 10 min to 24 h. Competition experiments were performed by simultaneous exposure to unlabeled (10^−5 M to 10^−9M) and radiolabeled compound for 60 min. For efflux experiments, radioactive medium was removed after incubation for 60 min and replaced by non-radioactive medium for time intervals ranging from 1 to 24 h. For internalization experiments, surface bound activity was removed by incubating the cells with 1 M glycine-HCl buffer for 10 min. The radioactivity was measured using a γ-counter, normalized to 1 mio cells and calculated as percentage of applied dose (% ID).
For radioligand binding studies, cells were seeded in 6-well plates and cultivated for 48 h to a final confluence of approx. 80-90% (1.2-2 mio cells/well). The medium was replaced by 1 mL fresh medium without fetal calf serum. The radiolabeled compound was added to the cell culture and incubated for different time intervals ranging from 10 min to 24 h. Competition experiments were performed by simultaneous exposure to unlabeled (10^−5 M to 10^−9 M) and radiolabeled compound for 60 min. For efflux experiments, radioactive medium was removed after incubation for 60 min and replaced by non-radioactive medium for time intervals ranging from 1 to 24 h. In all experiments, the cells were washed with 1 mL phosphate-buffered saline pH 7.4 for 2 times and subsequently lysed with 1.4 ml lysis buffer (0.3 M NaOH, 0.2% SDS). Radioactivity was determined in a γ-counter (Cobra II, Packard), normalized to 1 mio cells and calculated as percentage of the applied dose (% ID). Each experiment was performed 3 times, and 3 repetitions per independent experiment were acquired.

[3] = system: tumor lesions and normal tissue of cancer patients; assay: Clinical PET/CT imaging in cancer patients (SUV); type: in vivo, human
Description: Diagnostic imaging of more than 100 patients was performed under the conditions of the updated declaration of Helsinki, § 37 (Unproven interventions in clinical practice) and in accordance to the German Pharmaceuticals Law § 13 (2b) for medical reasons using either ^68Ga-FAPI-02 or -04, which was applied intravenously (20 nmol, 122-336 MBq), 10 min, 1 and 3 hours post tracer administration. Variation of injected radiotracer activity is due to the short half-life of ^68Ga and the variable elution efficiencies obtained during the lifetime of the ^68Ge/^68Ga generator. […] The PET/CT scans were performed with a Biograph mCT Flow™ PET/CT-Scanner (Siemens Medical Solution) using the following parameters: slice thickness of 5 mm, increment of 3-4 mm, soft-tissue reconstruction kernel, care dose. Immediately after CT scanning, a whole-body PET was acquired in 3D (matrix 200×200) in FlowMotion™ with 0.7 cm/min. The emission data were corrected for random, scatter and decay. Reconstruction was conducted with an ordered subset expectation maximisation (OSEM) algorithm with 2 iterations/21 subsets and Gauss-filtered to a transaxial resolution of 5 mm at full-width half-maximum (FWHM). Attenuation correction was performed using the low-dose non-enhanced CT data. The quantitative assessment of standardized uptake values (SUV) was done using a region of interest technique.
For the normal tissue of 16 organs, a 2 cm Spheric-VOI was placed in the parenchyma, for tumor lesions a threshold segmented VOI was used to quantify SUVmean/max^3.

[4] = target: recombinant human FAP protein (Homo sapiens (Human), UniProt Q12884); assay: Enzyme inhibition assay with fluorogenic substrate Z-GP-AMC; type: biochemical; settings: 0-1000 nM/well, 30 min at 37° C.
[5] = Blood pool clearance from SUVmean of the heart; type: in vivo
Source text: The calculated plateau values, which were higher for Ga-68 labeled FAPI-13, -21, -36 and AlF-18 labeled FAPI-74 theoretically correspond to a higher fraction of compound which is not cleared due to unspecific binding or by remaining in circulating (Table 12).

[6] = Preliminary dosimetry estimate in patients; type: in vivo, human
[7] = Lu-177 labeled, 1 h after i.v., HT-1080-FAP, mean ± SD, n = 3

recombinant human FAP protein, sequence (Q12884 whole entry): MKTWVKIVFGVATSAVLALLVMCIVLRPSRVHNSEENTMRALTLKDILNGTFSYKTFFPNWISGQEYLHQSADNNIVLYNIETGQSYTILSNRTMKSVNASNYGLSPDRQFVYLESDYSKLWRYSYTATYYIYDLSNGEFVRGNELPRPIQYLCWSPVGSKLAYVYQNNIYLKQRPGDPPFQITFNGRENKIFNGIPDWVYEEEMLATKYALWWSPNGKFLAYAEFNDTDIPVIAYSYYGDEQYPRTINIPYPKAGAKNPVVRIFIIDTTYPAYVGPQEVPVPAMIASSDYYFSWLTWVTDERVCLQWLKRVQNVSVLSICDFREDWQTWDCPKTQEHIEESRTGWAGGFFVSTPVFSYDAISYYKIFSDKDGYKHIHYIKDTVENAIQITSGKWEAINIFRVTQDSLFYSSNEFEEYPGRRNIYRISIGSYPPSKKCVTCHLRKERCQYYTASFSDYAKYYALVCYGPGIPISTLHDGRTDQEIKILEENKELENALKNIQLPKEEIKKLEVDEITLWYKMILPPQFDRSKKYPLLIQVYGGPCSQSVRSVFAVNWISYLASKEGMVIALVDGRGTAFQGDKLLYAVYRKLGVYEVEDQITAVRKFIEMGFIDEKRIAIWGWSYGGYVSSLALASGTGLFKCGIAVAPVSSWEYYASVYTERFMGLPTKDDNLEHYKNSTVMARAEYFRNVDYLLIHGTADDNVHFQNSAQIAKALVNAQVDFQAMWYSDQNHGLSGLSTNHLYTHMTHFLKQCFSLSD

N#C[C@@H]1CC(F)(F)CN1C(=O)CNC(=O)c1ccnc2ccc(OCCCN3CCN(C(=O)CN4CCN(CC(=O)O)CCN(CC(=O)O)CCN(CC(=O)O)CC4)CC3)cc12 [FAPI-04]
highest enrichment within the FAP-expressing tumor ([1]; 177Lu labeled, after 2 h): 5.4 % ID/g
Tumor uptake 1 h ([1]; HT-1080-FAP tumor bearing nude mice, 1 h, mean ± SD, n = 3): 4.9 ± 0.82 % ID/g
Tumor uptake 4 h ([1]; HT-1080-FAP tumor bearing nude mice, 4 h, mean ± SD, n = 3): 5.4 ± 1.51 % ID/g
Tumor uptake 24 h ([1]; HT-1080-FAP tumor bearing nude mice, 24 h, mean ± SD, n = 3): 3.0 ± 0.23 % ID/g
Blood uptake [1, 7]: 1.70 ± 0.206 % ID/g
Brain uptake [1, 7]: 0.08 ± 0.010 % ID/g
Heart uptake [1, 7]: 0.80 ± 0.089 % ID/g
Intestines uptake [1, 7]: 0.66 ± 0.196 % ID/g
Kidneys uptake [1, 7]: 2.28 ± 0.477 % ID/g
Liver uptake [1, 7]: 0.73 ± 0.118 % ID/g
Lungs uptake [1, 7]: 1.50 ± 0.151 % ID/g
Muscle uptake [1, 7]: 0.92 ± 0.020 % ID/g
Spleen uptake [1, 7]: 0.48 ± 0.072 % ID/g
Tumor uptake [1, 7]: 4.89 ± 0.817 % ID/g
retention of the originally accumulated radioactivity (efflux) [2]: 49%
maximum SUV values in primary tumor, lymph node and bone metastases ([3]; 68Ga labeled, 1 h after i.v. administration, patients): ≤ 48.0
background activity (SUV) ([3]; 68Ga labeled, 1 h p.i.): 2
average SUVmax, lowest uptake group ([3]; 68Ga labeled, 1 h p.i., renal cell, differentiated thyroid, adenoid-cystic, gastric carcinoma, pheochromocytoma): < 6
average SUVmax, highest uptake group ([3]; 68Ga labeled, 1 h p.i., sarcoma, esophageal, breast, cholangiocellular carcinoma, lung cancer): > 12
decrease of tumor uptake (washout) ([3]; from 1 h to 3 h p.i., patients): 50%
inhibition of enzymatic FAP activity [4]: robust, dose-dependent FAP inhibition
Plateau value (SUVmean) ([5]; hypothetical plateau, two phase exponential decay of heart SUVmean): 0.21
Blood pool-clearence (T1/2 [min]) ([5]; rate determining half-life, two phase exponential decay of heart SUVmean 0.375-60 min): 7.1 min
equivalent dose of an exam ([6]; 200 MBq Ga-68): 3-4 mSv
effective dose ([6]; calculated with IDAC1/ICRP60): 1.66E-02 mSv/MBq
effective dose ([6]; calculated with IDAC2/ICRP103): 1.35E-02 mSv/MBq
effective dose ([6]; calculated with OLINDA): 1.64E-02 mSv/MBq

Source: patent US20250127937A1, “FAP INHIBITOR” (UNIVERSITÄT HEIDELBERG, priority 2018, published 2025)
